From patent US20140315975A1, “APOPTOSIS-INDUCING AGENT” (NITTO DENKO CORPORATION, priority 2011, published 2014) come the findings set out here.

Common to all, as to assay type: cell-based
Series [1] has as its system RAS/Raf/MAPK signal cascade. The series can be described thus: Western blot of protein involved in RAS/Raf/MAPK signal cascade. The note with it: M7609 cells. The protocol:
A western blot analysis for the main protein involved in the RAS/Raf/MAPK signal cascade was carried out in the same way as for (3) above using cells harvested on the 2nd day after transfection with GST-π siRNA. As antibodies, in addition to anti-GST-π antibody, anti-p-Raf-1 (Ser338) antibody (MILLIPORE), anti-Raf-1 antibody (Santa Cruz), anti-p-MEK1/2 (Ser217/221) antibody (Cell Signaling), anti-MEK1/2 antibody (Cell Signaling), anti-p-ERK1/2 (Thr202/Tyr204) antibody (Cell Signaling), anti-ERK antibody (Cell Signaling), and anti-GAPDH antibody (Abcam) were used.

A further series has as its system Raf-1. In words: Immunoprecipitation of Raf-1 and anti-ubiquitin western blot. The note with it: M7609 cells. As for the experimental part:
In the same way as for Example 1 (3), on the 2nd day after siRNA transfection culturing was carried out for 16 hours in a serum-free medium, and a cell extract was collected. The cell extract thus obtained was subjected to quantitative protein analysis using a Micro BCA Protein Assay Kit (Scramble siRNA: 8.88 μg/μL, GST-π siRNA: […]). 0.5 μg of the cell extract was mixed with anti-Raf-1 antibody conjugated to Dynabeads Protein G (Invitrogen), incubation was carried out at 4° C. for 2 hours while gently mixing in a shaker to thus isolate Raf-1 protein, and then a western blot analysis was carried out in the same way as for Example 1 (3) using an anti-ubiquitin antibody (Santa Cruz). Phosphorylation modification of Ser621, which is involved in inhibition of Raf-1 proteasome degradation, was investigated in the same manner using an anti-p-Raf-1 (Ser621) antibody (MILLIPORE).
Background: A western blot detects proteins with antibodies after separation by electrophoresis.

Another series has as its system LC3. The series can be described thus: Autophagy induction by LC3 western blotting. The settings on record: M7609 cells, western blot with anti-LC3 antibody (FIG. 8). The protocol:
Induction of autophagy in GST-π knockdown cells was further analyzed by a western blot analysis of LC3. GST-π knockdown cells obtained by the procedure of Example 1 (2) were plated on a cover slip placed in a 35 mm plastic tissue culture dish so as to give 1×10^5 cells/2 mL. After incubating for a predetermined time, a cell extract was collected and subjected to a western blot analysis. A reaction with a transfer membrane was carried out at 4° C. for 16 hours using anti-LC3B antibody (SIGMA) as a primary antibody. Detection of LC3 molecules was carried out using a chemoluminescent reagent after a reaction with HRP-labeled secondary antibody. Whether or not autophagy was induced was evaluated by a shift of LC3 from type I (18 kDa) to type II (16 kDa).

For series [2], the system named is M7609 cells. The series can be described thus: Autophagy induction by electron microscope examination. The settings on record: 2 days after transfection, electron microscope (FIG. 7). As for the experimental part: On the 1st day after siRNA transfection in Example 1 (2), the cells were plated on an 8-well culture slide for tissue culture so as to give 0.4×10^5 cells/0.5 mL. Fixation was carried out using 2.5% glutaraldehyde in 0.1 M cacodylic acid buffer (pH 7.4) for hour, and after rinsing with 0.1 M cacodylic acid buffer post-fixation was carried out using 1% OsO4 and 1.5% potassium ferrocyanide for 2 hours. After dehydration was carried out three times with ethanol for 10 min., embedding in an epoxy resin (TAAB Laboratories Equipment) was carried out. An ultrathin section was prepared using a diamond knife, electron staining was carried out using uranyl acetate and lead citrate, and the section was examined using an electron microscope (Hitachi Transmission Electron Microscope H-7500, Hitachi High-Technologies Corporation).

Series [3] relates to M7609 cells. The series can be described thus: Apoptosis induction by TUNEL staining. The protocol:
A TUNEL method was carried out as follows using an In Situ Cell Death Detection Kit, POD (Roche). GST-π knockdown cells obtained by the procedure of Example 1 (2) were plated on a cover slip placed in a 35 mm plastic tissue culture dish so as to give 1×10^5 cells/2 mL. After the medium was aspirated, 4% paraformaldehyde in PBS was added, and incubation was carried out at room temperature for 60 min., thus fixing the cells. In order to carry out blocking of endogenous peroxidase, incubation was carried out with 3% H2O2 in methanol at room temperature for 10 min. Subsequently, permeabilization of cells was carried out by treating with 0.1% Triton X-100 in 0.1% sodium citrate on ice for 2 min. The TUNEL reaction was carried out in a humidity chamber at 37° C. for 60 min. Detection of TUNEL-positive cells was carried out by a coloration reaction using a DAB substrate after reacting a peroxidase labeled anti-fluorescein antibody at 37° C. for 30 min. Counter staining was carried out using hematoxylin, stained cells were examined under an optical microscope, and TUNEL-positive cells were evaluated as apoptotic cells. Washing between the operations was carried out by rinsing with PBS.

Series [4] concerns EGFR/PI3K/Akt/mTOR signal cascade. The series can be described thus: Western blot of EGFR/PI3K/Akt/mTOR signal. The note with it: M7609 cells, compared with Scramble siRNA (FIG. 11). As for the experimental part: Expression of each protein constituting the EGFR/PI3K/Akt/mTOR signal cascade was analyzed in the same way as for Example 1 (1), (2), and (4) except that, as primary antibodies, anti-p-EGFR (Tyr1068) antibody (Cell Signaling), anti-EGFR antibody (Santa Cruz), anti-p-PI3K p85 (Tyr458)/p55 (Tyr199) antibody (Cell Signaling), anti-PI3K, p85 antibody (MILLIPORE), anti-p-Akt (Ser473) antibody (Cell Signaling), anti-Akt antibody (Cell Signaling), anti-p-p70S6K (Thr389) antibody (Cell Signaling), anti-p-p70S6K (Thr421/Ser424) antibody (Cell Signaling), and anti-p70S6K antibody (Cell Signaling) were used.

For the substance “GST-π siRNA: GST-π siRNA (SEQ ID No: 1: GGGAGGCAAGACCUUCAUUTT, siRNA ID#2385, Ambion) (chemistry not given here)”, in series [1] (2nd day after transfection (FIG. 2)), the “expression level of Raf protein” value is “decreases”. The “phosphorylation of proteins involved in the RAS/Raf/MAPK signal cascade” value in series [1] (2nd day after transfection, compared with Scramble siRNA (FIG. 2)) was “decreased”. Besides, the “ubiquitination of Raf-1” value with Raf-1 (2nd day after transfection, compared with Scramble siRNA (FIG. 3)) is recorded as “enhanced”. For the same substance, the “expression of Raf protein and Ser621 phosphorylated Raf protein (p-Raf-1 (S621))” value in the series on Raf-1 (Raf-1 immunoprecipitate (FIG. 3)) is given as “decreased slightly”. Further, the “expression of type II LC3” value with LC3 is on record as “markedly increased”. In the series on M7609 cells [2], the autophagosome formation entry is recorded as “autophagosome was formed”. Besides, the “proportion of apoptosis-positive cells (TUNEL-positive per 1000 cells)” value in the series with M7609 cells [3] (1 to 4 days after transfection (FIG. 10)) is recorded as “gradually but continuously increased up to 4th day”. For the same substance, in the series with M7609 cells [3] (3rd to 5th day after transfection, stained images (FIG. 9)), the “TUNEL-positive cells (apoptosis)” value is recorded as “TUNEL-positive cells, that is, apoptosis, was observed”. The “phosphorylation of each protein constituting the EGFR/PI3K/Akt/mTOR signal cascade” value in series [4] was “reduced”.
